Experimental data taken from patent US20260078120A1, “SUBSTITUTED PYRIDOPYRIMIDINONES” (MIRATI THERAPEUTICS, INC., priority 2022, published 2026).

Experiments:
Format in all cases: cell-based
[1] = test system: T47D (PI3Kα H1047R mutant) cells; assay: CellTiter-Glo 2.0 luminescent cell viability assay, 72 hours, T47D cells; conditions: Homo sapiens, T47D, 72 h, T47D (PI3Kα H1047R mutant) cells, CellTiter-Glo, approximately 72 hours; read-out: T47D (H1047R mutant) Viability IC50
How it was run: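 Cells seeded at 1000 per well overnight were dosed with a 10-concentration, 1:4 series starting at 10 µM and incubated ~72 h at 37° C. Viability was read by CellTiter-Glo 2.0 luminescence after 30 min at room temperature. IC50 came from four-parameter fits of percent vehicle control.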

[2] = test system: SKBR3 (PI3Kα wild type) cells; assay: CellTiter-Glo 2.0 luminescent cell viability assay, 72 hours, SKBR3 cells; conditions: Homo sapiens, SK-BR-3, 72 h, SKBR3 (PI3Kα wild type) cells, CellTiter-Glo, approximately 72 hours; read-out: SKBR3 (WT) Viability IC50
How it was run: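 Viability measured via CTG luminescence following roughly 72 hours of compound exposure at 37° C. Dosing used a 10 um starting concentration diluted 1:4 over 10 points; percent-of-vehicle data fitted with a variable-slope four-parameter model for IC50.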

[3] = test system: SKBR3 (PI3Kα wild type) cells; assay: Inhibition of pAKT formation, alphaLISA SureFire Ultra AKT 1/2/3 (pS473), SKBR3 cells; conditions: Homo sapiens, SK-BR-3; Inhibition of pAKT in SKBR3 (PI3Kα wild type) cells; read-out: SKBR3 (WT) pAKT IC50 (nM) (H1047R mutant) IC50
Description: The ability of a compound of Formula (I) to inhibit the formation of pAKT was measured using alphaLISA Surefire Ultra AKT 1/2/3 (pS473) Assay Kit (#ALSU-PAKT-B50K) was obtained from Perkin Elmer (Waltham, MA).
To prepare assay plates for pAKT alphaLISA assays, cells were trypsinized, resuspended in fresh media, and viable cells were counted utilizing trypan blue exclusion. Prior to seeding, cells were washed with PBS and resuspended in HBSS (Gibco, #14025092). T47D (12,000/w), SKBR3(12,000/w), or MKN1(24,000/w) cells were seeded at 12 μl per well in a solid white flat bottom 384 cell culture plate (Perkin Elmer #6007680).
Immediately after seeding, cells were dosed using an Echo Liquid Handler (Beckman Coulter) with compounds at a […] starting concentration and serially diluted (1:4) for a total of 10 concentrations. […] Cells were incubated with the compounds (solubilized in DMSO) for approximately one hour or 24 hours at 37° C. After one hour (or 24 hours) of treatment, cells were lysed with 3 μl of the 5× lysis buffer (provided and incubated at room temperature for 15 min on a microtiter plate shaker). Once cells were sufficiently lysed, 7.5 μl of the acceptor bead mix (made using the manufacturers recommended dilutions) was added to each well and left on the microtiter plate shaker for 1 min prior to incubating plates at room temperature for one hour, in the absence of light. After one hour of incubation with the acceptor bead mix, 7.5 μl of the donor bead mix (made using the manufacturers recommended dilutions) was added to each well and left on the microtiter plate shaker for 1 min prior to incubating plates at room temperature overnight in the absence of light. Plates were then imaged the following day using a CLARIOstar microplate reader (BMG Labtech, Germany).
Percent of control values were calculated by subtracting the average signal from the positive control (alpelisib) treated wells from all treated wells (including DMSO control wells) and then divided by the average signal from the vehicle DMSO treated control wells. Percent of vehicle control values were plotted as log (inhibitor) vs. response-Variable slope (four parameters) for curve fitting and IC50 values were determined using XLfit.
Key: N.D. =not determined

[4] = test system: T47D (PI3Kα H1047R mutant) cells; assay: Inhibition of pAKT formation, alphaLISA SureFire Ultra AKT 1/2/3 (pS473), T47D cells; conditions: Homo sapiens, T47D, T47D (PI3Kα H1047R mutant) cells; inhibition of pAKT (pS473) formation; approximately one hour or 24 hours treatment; read-out: T47D pAKT (H1047R mutant) IC50
How it was run: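 T47D cells (12,000/well) in HBSS were dosed with compound at 10 concentrations (10.4 μM top, 1:4 dilutions) for about 1 h or 24 h at 37 °C, then lysed. pS473 AKT was read by alphaLISA. Signals were normalized to alpelisib and DMSO controls, and IC50 came from a four-parameter fit.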

Compound | IC50 [1] [nM] | IC50 [2] [nM] | IC50 [3] [nM] | IC50 [4] [nM]
Cc1cc([C@@H](C)Nc2ccc(Cl)nc2C(=O)O)c2nc(N3CCC(F)(F)CC3)c(C#N)c(=O)n2c1 [Example 10-67, (R)-6-chloro-3-((1-(3-cyano-2-(4,4-difluoropiperidin-1-yl)-7-methyl-4-oxo-4H-pyrido[1,2-a]pyrimidin-9-yl)ethyl)amino)picolinic acid] | 304 | > 10000 | > 10000 | 14.1
Cc1cc([C@@H](C)Nc2ccccc2C(=O)O)c2nc(N3CCS(=O)(=O)CC3)c(C#N)c(=O)n2c1 [Example 10-68, (R)-2-((1-(3-cyano-2-(1,1-dioxidothiomorpholino)-7-methyl-4-oxo-4H-pyrido[1,2-a]pyrimidin-9-yl)ethyl)amino)benzoic acid] | > 10000 | > 10000 | > 10000 | 375
Cc1cc([C@@H](C)Nc2ccccc2C(=O)O)c2nc(N3CC4CC(C3)C4(F)F)c(C#N)c(=O)n2c1 [Example 10-69, 2-(((1R)-1-(3-cyano-2-(6,6-difluoro-3-azabicyclo[3.1.1]heptan-3-yl)-7-methyl-4-oxo-4H-pyrido[1,2-a]pyrimidin-9-yl)ethyl)amino)benzoic acid] | 165 | > 10000 | 1800 | 3.69
Cc1cc([C@@H](C)Nc2ccccc2C(=O)O)c2nc(N3CCCCC3)c(C(N)=O)c(=O)n2c1 [Example 10-70, (R)-2-((1-(3-carbamoyl-7-methyl-4-oxo-2-(piperidin-1-yl)-4H-pyrido[1,2-a]pyrimidin-9-yl)ethyl)amino)benzoic acid] | 4680 | > 10000 | > 10000 | > 10000
Cc1cc([C@@H](C)Nc2ccccc2C(=O)O)c2nc(N3CCCCC3)c(C(F)(F)F)c(=O)n2c1 [Example 10-71, (R)-2-((1-(7-methyl-4-oxo-2-(piperidin-1-yl)-3-(trifluoromethyl)-4H-pyrido[1,2-a]pyrimidin-9-yl)ethyl)amino)benzoic acid] | 4890 | > 10000 | > 10000 | > 10000
Cc1cc([C@@H](C)Nc2ccccc2C(=O)O)c2nc(N3CCC(C)(C)CC3)c(C#N)c(=O)n2c1 [Example 10-72, (R)-2-((1-(3-cyano-2-(4,4-dimethylpiperidin-1-yl)-7-methyl-4-oxo-4H-pyrido[1,2-a]pyrimidin-9-yl)ethyl)amino)benzoic acid] | 151 | > 10000 | 2480 | 1.33
Cc1cc([C@@H](C)Nc2ccccc2C(=O)O)c2nc(N3CCCC3)c(C#N)c(=O)n2c1 [Example 10-73, (R)-2-((1-(3-cyano-7-methyl-4-oxo-2-(pyrrolidin-1-yl)-4H-pyrido[1,2-a]pyrimidin-9-yl)ethyl)amino)benzoic acid] | 135 | > 10000 | 1030 | 3.29
Cc1cc([C@@H](C)Nc2ccccc2C(=O)O)c2nc(N3CCCCC3)c(C)c(=O)n2c1 [Example 10-74, (R)-2-((1-(3,7-dimethyl-4-oxo-2-(piperidin-1-yl)-4H-pyrido[1,2-a]pyrimidin-9-yl)ethyl)amino)benzoic acid] | 120 | > 10000 | 1460 | 3.23
Cc1cc([C@@H](C)Nc2ccccc2C(=O)O)c2nc(N3CCCCC3)c(C#N)c(=O)n2c1 [Example 10-99, (R)-2-((1-(3-cyano-7-methyl-4-oxo-2-(piperidin-1-yl)-4H-pyrido[1,2-a]pyrimidin-9-yl)ethyl)amino)benzoic acid] | 86.2 | 9940 | 2260 | 0.978
